Data published in US7842691B2, “Method for the treatment of myelodysplastic syndromes using cyclopropanecarboxylic acid {2-[1-(3-ethoxy-4-methoxy-phenyl)-2-methanesulfonyl-ethyl]-3-OXO-2,3-dihydro-1 H-isoindol-4-yl}-amide” (Celgene Corporation, priority 2003, dated 2010).

B1: granulocyte colony stimulating factor (protein, UniProt P09919 31-207, looked up)
Granulocyte …: TPLGPASSLPQSFLLKCLEQVRKIQGDGAALQEKLVSECATYKLCHPEELVLLGHSLGIPWAPLSSCPSQALQLAGCLSQLHSGLFLYQGLLQALEGISPELGPTLDTLQLDVADFATTIWQQMEELGMAPALQPTQGAMPAFASAFQRRAGGVLVASHLQSFLEVSYRVLRHLAQP
notes: granulocyte colony stimulating factor, recombinant human

What was measured:
[1] = test system: MDS bone marrow progenitor formation; test: MDS vs normal bone marrow progenitor formation in pre-clinical models; assay type: cell-based
Description: (§1) The pharmacological effects of 3-(3,4-dimethoxy-phenyl)-3-(1-oxo-1,3-dihydro-isoindol-2-yl)-propionamide derive from its action as an inhibitor of cellular response to receptor-initiated trophic signals (e.g., IGF-1, VEGF, cyclooxygenase-2), and other activities.

[2] = test system: production of various cytokines; test: In vitro pharmacology studies, effects on production of various cytokines, activity comparison with thalidomide; assay type: cell-based, human
Experimental: The pharmacological properties of 3-(3,4-dimethoxy-phenyl)-3-(1-oxo-1,3-dihydro-isoindol-2-yl)-propionamide, including activity comparisons with thalidomide, are characterized in in vitro studies. Studies examine the effects of 3-(3,4-dimethoxy-phenyl)-3-(1-oxo-1,3-dihydro-isoindol-2-yl)-propionamide on the production of various cytokines. In addition, a safety pharmacology study of -(3,4-dimethoxy-phenyl)-3-(1-oxo-1,3-dihydro-isoindol-2-yl)-propionamide is conducted in dogs and the effects of the compound on ECG parameters are examined further as part of three repeat-dose toxicity studies in primates.
Inhibition of TNF-α production following LPS-stimulation of human PBMC and human whole blood by 3-(3,4-dimethoxy-phenyl)-3-(1-oxo-1,3-dihydro-isoindol-2-yl)-propionamide is investigated in vitro (Muller et al., Bioorg. Med. Chem. Lett. 9:1625-1630, 1999). The IC50's of 3-(3,4-dimethoxy-phenyl)-3-(1-oxo-1,3-dihydro-isoindol-2-yl)-propionamide for inhibiting production of TNF-α following LPS-stimulation of PBMC and human whole blood is measured.
as §1

AML cells = test: Mitogenic response to VEGF in AML cells (ligand-induced Akt-phosphorylation); assay type: cell-based; conditions: by extinguishing ligand-induced Akt-phosphorylation
Description: as §1

MDS patients = conditions: cited from earlier work; for granulocytopoiesis in treated patients / improvement in hemoglobin or platelet counts: clinical trials of MDS patients

| Molecule | granulocytopoiesis in treated patients (MDS patients) | improvement in hemoglobin or platelet counts (MDS patients) | other results |
| --- | --- | --- | --- |
| COc1ccc(C(CC(N)=O)N2Cc3ccccc3C2=O)cc1OC (centres unmarked) [3-(3,4-dimethoxy-phenyl)-3-(1-oxo-1,3-dihydro-isoindol-2-yl)-propionamide] |  |  | MDS vs normal bone marrow progenitor formation [1]: selectively suppresses MDS vs normal bone marrow progenitor formation; generation of inflammatory cytokines [2]: suppresses the generation of inflammatory cytokines; mitogenic response to VEGF (AML cells): abrogates mitogenic response to VEGF in AML cells |
| granulocyte macrophage colony stimulating factor [GM-CSF] | can restore granulocytopoiesis | little or no improvement |  |
| erythropoietin [recombinant human EPO] |  |  | patients with sustained improvement in hemoglobin or decrease in transfusion requirement (MDS patients; MDS patients treated with recombinant human EPO): less than 25 % of patients |
| B1 | can restore granulocytopoiesis | little or no improvement |  |
